Among the data in patent publication US20240239752A1, “BICYCLIC HETEROAROMATIC INHIBITORS OF KLK5” (BioCryst Pharmaceuticals, Inc., priority 2021, published 2024) are IC50 values, retold here.

For the assay, the target named is T1, recombinant human KLK5 (Homo sapiens, UniProt Q9Y337).
T1 construct: purchased Novoprotein or R&D Systems C415 or 1108-SE
T1 sequence (Q9Y337 23-293): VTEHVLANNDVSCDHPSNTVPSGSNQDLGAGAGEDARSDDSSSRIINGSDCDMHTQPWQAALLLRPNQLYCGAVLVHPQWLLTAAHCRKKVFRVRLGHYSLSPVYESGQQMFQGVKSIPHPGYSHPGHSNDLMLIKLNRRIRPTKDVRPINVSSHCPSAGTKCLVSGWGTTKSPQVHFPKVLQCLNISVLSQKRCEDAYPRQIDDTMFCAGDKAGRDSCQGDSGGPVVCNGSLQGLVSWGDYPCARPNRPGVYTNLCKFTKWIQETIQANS
As to the kind of experiment: Kallikrein (KLK) 5 enzymatic assay (Boc-VPR-AMC fluorogenic substrate). In kind it is biochemical. Conditions: recombinant human KLK5 0.1 μg/well, Boc-VPR-AMC 100 μM, pH 7.5, room temperature, 1% DMSO; tested a minimum of three times. Summed up:
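Fluorogenic rate assay at pH 7.5 (0.1 M NaH2PO4, 1% DMSO, room temperature), run at least three times per compound. Compound was premixed with 0.1 μg/well recombinant human KLK5 before adding 100 μM Boc-VPR-AMC; AMC release was read at ex 380/em 460 nm, and IC50 derived from inhibition of rate vs DMSO control.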
The term IC50 denotes the concentration needed to halve the response being measured. With `Nc1nccc2c(-c3ccc4c(c3)c(COc3ccccc3CC(=O)O)nn4C3CCOCC3)cccc12` [Compound 282b, 2-(2-((5-(1-aminoisoquinolin-5-yl)-1-(tetrahydro-2H-pyran-4-yl)-1H-indazol-3-yl)methoxy)phenyl)acetic acid], the IC50 is less than 1000 nM.

`Nc1nccc2ccc(-c3ccc4c(c3)c(COc3ccccc3CC(=O)O)nn4C3CCCOC3)cc12` (stereo not drawn) [Compound 283g, 2-(2-((5-(1-aminoisoquinolin-7-yl)-1-(tetrahydro-2H-pyran-3-yl)-1H-indazol-3-yl)methoxy)phenyl)acetic acid]: the IC50 is less than 1000 nM.

Regarding `Nc1nccc2c(-c3ccc4c(c3)c(COc3ccccc3CC(=O)O)nn4C3CCCOC3)cccc12` (stereo not drawn) [Compound 284b, 2-(2-((5-(1-aminoisoquinolin-5-yl)-1-(tetrahydro-2H-pyran-3-yl)-1H-indazol-3-yl)methoxy)phenyl)acetic acid], the IC50 is less than 1000 nM.

Take `Nc1nccc2c(-c3ccc4c(c3)N(Cc3ccccc3CC(=O)O)CC4)cccc12` [Compound 285d, 2-(2-((6-(1-aminoisoquinolin-5-yl)indolin-1-yl)methyl)phenyl)acetic acid]: the IC50 was in the range of 1000 to 10000 nM.

Consider `NC(=O)c1cc(-c2cccc3c(N)nccc23)cc2c(COc3ccccc3CC(=O)O)nn(C3CCCCO3)c12` (stereo not drawn) [Compound 286a, 2-(2-((5-(1-aminoisoquinolin-5-yl)-7-carbamoyl-1-(tetrahydro-2H-pyran-2-yl)-1H-indazol-3-yl)methoxy)phenyl)acetic acid], for which the IC50 was 1000 to 10000 nM.

Consider `NCc1cc(-c2cccc3c(N)nccc23)cc2c(COc3ccccc3CC(=O)O)nn(C3CCCCO3)c12` (stereo not drawn) [Compound 287a, 2-(2-((5-(1-aminoisoquinolin-5-yl)-7-(aminomethyl)-1-(tetrahydro-2H-pyran-2-yl)-1H-indazol-3-yl)methoxy)phenyl)acetic acid], for which the IC50 lay within 1000 to 10000 nM.

In the case of `Nc1nccc2ccc(-c3ccc4c(c3)c(COc3cccc(OC(F)(F)F)c3CC(=O)O)nn4C3CCOC3)cc12` (stereo not drawn) [Compound 288d, 2-(2-((5-(1-aminoisoquinolin-7-yl)-1-(tetrahydrofuran-3-yl)-1H-indazol-3-yl)methoxy)-6-(trifluoromethoxy)phenyl)acetic acid], the IC50 was less than 1000 nM.

With `Nc1nccc2c(-c3ccc4c(c3)c(COc3cccc(OC(F)(F)F)c3CC(=O)O)nn4C3CCOC3)cccc12` (stereo not drawn) [Compound 289b, 2-(2-((5-(1-aminoisoquinolin-5-yl)-1-(tetrahydrofuran-3-yl)-1H-indazol-3-yl)methoxy)-6-(trifluoromethoxy)phenyl)acetic acid], the IC50 was less than 1000 nM.

For `Nc1nccc2ccc(-c3ccc4c(c3)c(COc3cccc(C5CC5)c3CC(=O)O)nn4C3CCOC3)cc12` (stereo not drawn) [Compound 290d, 2-(2-((5-(1-aminoisoquinolin-7-yl)-1-(tetrahydrofuran-3-yl)-1H-indazol-3-yl)methoxy)-6-cyclopropylphenyl)acetic acid], the IC50 is less than 1000 nM.

As to `Nc1nccc2c(-c3ccc4c(c3)c(COc3cccc(C5CC5)c3CC(=O)O)nn4C3CCOC3)cccc12` (stereo not drawn) [Compound 291b, 2-(2-((5-(1-aminoisoquinolin-5-yl)-1-(tetrahydrofuran-3-yl)-1H-indazol-3-yl)methoxy)-6-cyclopropylphenyl)acetic acid], the IC50 was less than 1000 nM.

In the case of `N#Cc1cccc(OCc2nn(C3CCOC3)c3ccc(-c4ccc5ccnc(N)c5c4)cc23)c1CC(=O)O` (stereo not drawn) [Compound 292d, 2-(2-((5-(1-aminoisoquinolin-7-yl)-1-(tetrahydrofuran-3-yl)-1H-indazol-3-yl)methoxy)-6-cyanophenyl)acetic acid], the IC50 lay in the range of 1000 to 10000 nM.

`N#Cc1cccc(OCc2nn(C3CCOC3)c3ccc(-c4cccc5c(N)nccc45)cc23)c1CC(=O)O` (stereo not drawn) [Compound 293b, 2-(2-((5-(1-aminoisoquinolin-5-yl)-1-(tetrahydrofuran-3-yl)-1H-indazol-3-yl)methoxy)-6-cyanophenyl)acetic acid]: the IC50 is less than 1000 nM.
